ChEMBL document CHEMBL5625277, “Systematical mutational analysis of teriparatide on anti-osteoporosis activity by alanine scanning” (Bioorg Med Chem Lett, 2024)

Experiment: Cytotoxicity in pre-osteoblasts (unknown origin) assessed as cell death upto 5 uM by CCK8 assay
Type: toxicity, cell-based
Conditions: pre-osteoblast

Q: For `CC[C@H](C)[C@H](NC(=O)[C@H](CCC(=O)O)NC(=O)[C@H](CO)NC(=O)[C@@H](NC(=O)[C@H](CO)NC(C)=O)C(C)C)C(=O)N[C@@H](CCC(N)=O)C(=O)N[C@@H](CC(C)C)C(=O)N[C@@H](CCSC)C(=O)N[C@@H](Cc1cnc[nH]1)C(=O)N[C@@H](CC(N)=O)C(=O)N[C@@H](CC(C)C)C(=O)NCC(=O)N[C@@H](CCCCN)C(=O)N[C@@H](Cc1cnc[nH]1)C(=O)N[C@@H](CC(C)C)C(=O)N[C@@H](CC(N)=O)C(=O)N[C@@H](CO)C(=O)N[C@@H](CCSC)C(=O)N[C@@H](CCC(=O)O)C(=O)N[C@@H](CCCNC(=N)N)C(=O)N[C@H](C(=O)N[C@@H](CCC(=O)O)C(=O)N[C@@H](Cc1c[nH]c2ccccc12)C(=O)N[C@@H](CC(C)C)C(=O)N[C@@H](CCCNC(=N)N)C(=O)N[C@@H](CCCCN)C(=O)N[C@@H](CCCCN)C(=O)N[C@@H](CC(C)C)C(=O)N[C@@H](C)C(=O)N[C@@H](CC(=O)O)C(=O)N[C@H](C(=O)N[C@@H](Cc1cnc[nH]1)C(=O)N[C@@H](CC(N)=O)C(=O)N[C@@H](Cc1ccccc1)C(N)=O)C(C)C)C(C)C`, which Activity is on record?
A: Its Activity is “Non-Toxic”.

Q: Which Activity does the source give for `CC[C@H](C)[C@H](NC(=O)[C@H](CCC(=O)O)NC(=O)[C@H](CO)NC(=O)[C@@H](NC(=O)[C@H](CO)NC(C)=O)C(C)C)C(=O)N[C@@H](CCC(N)=O)C(=O)N[C@@H](CC(C)C)C(=O)N[C@@H](CCSC)C(=O)N[C@@H](Cc1cnc[nH]1)C(=O)N[C@@H](CC(N)=O)C(=O)N[C@@H](CC(C)C)C(=O)NCC(=O)N[C@@H](CCCCN)C(=O)N[C@@H](Cc1cnc[nH]1)C(=O)N[C@@H](CC(C)C)C(=O)N[C@@H](CC(N)=O)C(=O)N[C@@H](CO)C(=O)N[C@@H](CCSC)C(=O)N[C@@H](CCC(=O)O)C(=O)N[C@@H](CCCNC(=N)N)C(=O)N[C@H](C(=O)N[C@@H](CCC(=O)O)C(=O)N[C@@H](Cc1c[nH]c2ccccc12)C(=O)N[C@@H](CC(C)C)C(=O)N[C@@H](CCCNC(=N)N)C(=O)N[C@@H](CCCCN)C(=O)N[C@@H](CCCCN)C(=O)N[C@@H](C)C(=O)N[C@@H](CCC(N)=O)C(=O)N[C@@H](CC(=O)O)C(=O)N[C@H](C(=O)N[C@@H](Cc1cnc[nH]1)C(=O)N[C@@H](CC(N)=O)C(=O)N[C@@H](Cc1ccccc1)C(N)=O)C(C)C)C(C)C` here?
A: The Activity was “Non-Toxic”.

Q: For `CC[C@H](C)[C@H](NC(=O)[C@H](CCC(=O)O)NC(=O)[C@H](CO)NC(=O)[C@@H](NC(=O)[C@H](CO)NC(C)=O)C(C)C)C(=O)N[C@@H](CCC(N)=O)C(=O)N[C@@H](CC(C)C)C(=O)N[C@@H](CCSC)C(=O)N[C@@H](Cc1cnc[nH]1)C(=O)N[C@@H](CC(N)=O)C(=O)N[C@@H](CC(C)C)C(=O)NCC(=O)N[C@@H](CCCCN)C(=O)N[C@@H](Cc1cnc[nH]1)C(=O)N[C@@H](CC(C)C)C(=O)N[C@@H](CC(N)=O)C(=O)N[C@@H](CO)C(=O)N[C@@H](CCSC)C(=O)N[C@@H](CCC(=O)O)C(=O)N[C@@H](CCCNC(=N)N)C(=O)N[C@H](C(=O)N[C@@H](CCC(=O)O)C(=O)N[C@@H](Cc1c[nH]c2ccccc12)C(=O)N[C@@H](CC(C)C)C(=O)N[C@@H](CCCNC(=N)N)C(=O)N[C@@H](CCCCN)C(=O)N[C@@H](CCCCN)C(=O)N[C@@H](CC(C)C)C(=O)N[C@@H](CCC(N)=O)C(=O)N[C@@H](CC(=O)O)C(=O)N[C@H](C(=O)N[C@@H](Cc1cnc[nH]1)C(=O)N[C@@H](CC(N)=O)C(=O)N[C@@H](Cc1ccccc1)C(N)=O)C(C)C)C(C)C`, which Activity is on record?
A: The Activity was “Non-Toxic”.

Q: With `CC[C@H](C)[C@H](NC(=O)[C@H](CCC(=O)O)NC(=O)[C@H](CO)NC(=O)[C@@H](NC(=O)[C@H](CO)NC(C)=O)C(C)C)C(=O)N[C@@H](CCC(N)=O)C(=O)N[C@@H](CC(C)C)C(=O)N[C@@H](CCSC)C(=O)N[C@@H](Cc1cnc[nH]1)C(=O)N[C@@H](CC(N)=O)C(=O)N[C@@H](CC(C)C)C(=O)NCC(=O)N[C@@H](CCCCN)C(=O)N[C@@H](Cc1cnc[nH]1)C(=O)N[C@@H](CC(C)C)C(=O)N[C@@H](CC(N)=O)C(=O)N[C@@H](CO)C(=O)N[C@@H](CCSC)C(=O)N[C@@H](CCC(=O)O)C(=O)N[C@@H](CCCNC(=N)N)C(=O)N[C@H](C(=O)N[C@@H](CCC(=O)O)C(=O)N[C@@H](C)C(=O)N[C@@H](CC(C)C)C(=O)N[C@@H](CCCNC(=N)N)C(=O)N[C@@H](CCCCN)C(=O)N[C@@H](CCCCN)C(=O)N[C@@H](CC(C)C)C(=O)N[C@@H](CCC(N)=O)C(=O)N[C@@H](CC(=O)O)C(=O)N[C@H](C(=O)N[C@@H](Cc1cnc[nH]1)C(=O)N[C@@H](CC(N)=O)C(=O)N[C@@H](Cc1ccccc1)C(N)=O)C(C)C)C(C)C` as the compound, how does the Activity read?
A: The Activity was “Non-Toxic”.

Q: Which Activity does the source give for `CC[C@H](C)[C@H](NC(=O)[C@H](CCC(=O)O)NC(=O)[C@H](CO)NC(=O)[C@@H](NC(=O)[C@H](CO)NC(C)=O)C(C)C)C(=O)N[C@@H](CCC(N)=O)C(=O)N[C@@H](CC(C)C)C(=O)N[C@@H](CCSC)C(=O)N[C@@H](Cc1cnc[nH]1)C(=O)N[C@@H](CC(N)=O)C(=O)N[C@@H](CC(C)C)C(=O)NCC(=O)N[C@@H](CCCCN)C(=O)N[C@@H](Cc1cnc[nH]1)C(=O)N[C@@H](CC(C)C)C(=O)N[C@@H](CC(N)=O)C(=O)N[C@@H](CO)C(=O)N[C@@H](C)C(=O)N[C@@H](CCC(=O)O)C(=O)N[C@@H](CCCNC(=N)N)C(=O)N[C@H](C(=O)N[C@@H](CCC(=O)O)C(=O)N[C@@H](Cc1c[nH]c2ccccc12)C(=O)N[C@@H](CC(C)C)C(=O)N[C@@H](CCCNC(=N)N)C(=O)N[C@@H](CCCCN)C(=O)N[C@@H](CCCCN)C(=O)N[C@@H](CC(C)C)C(=O)N[C@@H](CCC(N)=O)C(=O)N[C@@H](CC(=O)O)C(=O)N[C@H](C(=O)N[C@@H](Cc1cnc[nH]1)C(=O)N[C@@H](CC(N)=O)C(=O)N[C@@H](Cc1ccccc1)C(N)=O)C(C)C)C(C)C` here?
A: Its Activity is “Non-Toxic”.

Q: With `CC[C@H](C)[C@H](NC(=O)[C@H](CCC(=O)O)NC(=O)[C@H](CO)NC(=O)[C@@H](NC(=O)[C@H](CO)NC(C)=O)C(C)C)C(=O)N[C@@H](CCC(N)=O)C(=O)N[C@@H](CC(C)C)C(=O)N[C@@H](CCSC)C(=O)N[C@@H](Cc1cnc[nH]1)C(=O)N[C@@H](CC(N)=O)C(=O)N[C@@H](CC(C)C)C(=O)NCC(=O)N[C@@H](CCCCN)C(=O)N[C@@H](C)C(=O)N[C@@H](CC(C)C)C(=O)N[C@@H](CC(N)=O)C(=O)N[C@@H](CO)C(=O)N[C@@H](CCSC)C(=O)N[C@@H](CCC(=O)O)C(=O)N[C@@H](CCCNC(=N)N)C(=O)N[C@H](C(=O)N[C@@H](CCC(=O)O)C(=O)N[C@@H](Cc1c[nH]c2ccccc12)C(=O)N[C@@H](CC(C)C)C(=O)N[C@@H](CCCNC(=N)N)C(=O)N[C@@H](CCCCN)C(=O)N[C@@H](CCCCN)C(=O)N[C@@H](CC(C)C)C(=O)N[C@@H](CCC(N)=O)C(=O)N[C@@H](CC(=O)O)C(=O)N[C@H](C(=O)N[C@@H](Cc1cnc[nH]1)C(=O)N[C@@H](CC(N)=O)C(=O)N[C@@H](Cc1ccccc1)C(N)=O)C(C)C)C(C)C` as the compound, how does the Activity read?
A: The Activity was “Non-Toxic”.

Q: With `CC[C@H](C)[C@H](NC(=O)[C@H](CCC(=O)O)NC(=O)[C@H](CO)NC(=O)[C@@H](NC(=O)[C@H](CO)NC(C)=O)C(C)C)C(=O)N[C@@H](CCC(N)=O)C(=O)N[C@@H](CC(C)C)C(=O)N[C@@H](CCSC)C(=O)N[C@@H](Cc1cnc[nH]1)C(=O)N[C@@H](CC(N)=O)C(=O)N[C@@H](CC(C)C)C(=O)NCC(=O)N[C@@H](CCCCN)C(=O)N[C@@H](Cc1cnc[nH]1)C(=O)N[C@@H](C)C(=O)N[C@@H](CC(N)=O)C(=O)N[C@@H](CO)C(=O)N[C@@H](CCSC)C(=O)N[C@@H](CCC(=O)O)C(=O)N[C@@H](CCCNC(=N)N)C(=O)N[C@H](C(=O)N[C@@H](CCC(=O)O)C(=O)N[C@@H](Cc1c[nH]c2ccccc12)C(=O)N[C@@H](CC(C)C)C(=O)N[C@@H](CCCNC(=N)N)C(=O)N[C@@H](CCCCN)C(=O)N[C@@H](CCCCN)C(=O)N[C@@H](CC(C)C)C(=O)N[C@@H](CCC(N)=O)C(=O)N[C@@H](CC(=O)O)C(=O)N[C@H](C(=O)N[C@@H](Cc1cnc[nH]1)C(=O)N[C@@H](CC(N)=O)C(=O)N[C@@H](Cc1ccccc1)C(N)=O)C(C)C)C(C)C` as the compound, how does the Activity read?
A: Its Activity is “Non-Toxic”.

Q: For `CC[C@H](C)[C@H](NC(=O)[C@H](CCC(=O)O)NC(=O)[C@H](CO)NC(=O)[C@@H](NC(=O)[C@H](CO)NC(C)=O)C(C)C)C(=O)N[C@@H](CCC(N)=O)C(=O)N[C@@H](CC(C)C)C(=O)N[C@@H](CCSC)C(=O)N[C@@H](Cc1cnc[nH]1)C(=O)N[C@@H](CC(N)=O)C(=O)N[C@@H](CC(C)C)C(=O)NCC(=O)N[C@@H](CCCCN)C(=O)N[C@@H](Cc1cnc[nH]1)C(=O)N[C@@H](CC(C)C)C(=O)N[C@@H](CC(N)=O)C(=O)N[C@@H](CO)C(=O)N[C@@H](CCSC)C(=O)N[C@@H](C)C(=O)N[C@@H](CCCNC(=N)N)C(=O)N[C@H](C(=O)N[C@@H](CCC(=O)O)C(=O)N[C@@H](Cc1c[nH]c2ccccc12)C(=O)N[C@@H](CC(C)C)C(=O)N[C@@H](CCCNC(=N)N)C(=O)N[C@@H](CCCCN)C(=O)N[C@@H](CCCCN)C(=O)N[C@@H](CC(C)C)C(=O)N[C@@H](CCC(N)=O)C(=O)N[C@@H](CC(=O)O)C(=O)N[C@H](C(=O)N[C@@H](Cc1cnc[nH]1)C(=O)N[C@@H](CC(N)=O)C(=O)N[C@@H](Cc1ccccc1)C(N)=O)C(C)C)C(C)C`, which Activity is on record?
A: Its Activity is “Non-Toxic”.

Q: Which Activity does the source give for `CC[C@H](C)[C@H](NC(=O)[C@H](CCC(=O)O)NC(=O)[C@H](CO)NC(=O)[C@@H](NC(=O)[C@H](CO)NC(C)=O)C(C)C)C(=O)N[C@@H](CCC(N)=O)C(=O)N[C@@H](CC(C)C)C(=O)N[C@@H](CCSC)C(=O)N[C@@H](Cc1cnc[nH]1)C(=O)N[C@@H](CC(N)=O)C(=O)N[C@@H](CC(C)C)C(=O)NCC(=O)N[C@@H](CCCCN)C(=O)N[C@@H](Cc1cnc[nH]1)C(=O)N[C@@H](CC(C)C)C(=O)N[C@@H](CC(N)=O)C(=O)N[C@@H](C)C(=O)N[C@@H](CCSC)C(=O)N[C@@H](CCC(=O)O)C(=O)N[C@@H](CCCNC(=N)N)C(=O)N[C@H](C(=O)N[C@@H](CCC(=O)O)C(=O)N[C@@H](Cc1c[nH]c2ccccc12)C(=O)N[C@@H](CC(C)C)C(=O)N[C@@H](CCCNC(=N)N)C(=O)N[C@@H](CCCCN)C(=O)N[C@@H](CCCCN)C(=O)N[C@@H](CC(C)C)C(=O)N[C@@H](CCC(N)=O)C(=O)N[C@@H](CC(=O)O)C(=O)N[C@H](C(=O)N[C@@H](Cc1cnc[nH]1)C(=O)N[C@@H](CC(N)=O)C(=O)N[C@@H](Cc1ccccc1)C(N)=O)C(C)C)C(C)C` here?
A: The Activity was “Non-Toxic”.
